The values below come from US11247965B2 (VenatoRx Pharmaceuticals, Inc., priority 2017, dated 2022).

Data set [1] can be described thus: In vitro cytotoxicity, MTT cell viability assay in HepG2 cells. In kind it is cell-based. The note with it: human. The protocol: To evaluate antiviral selectivity, the cytotoxic activity of each compound was determined using a standard cell viability assay performed on the parental HepG2 cell line. Cell viability was determined by measuring the conversion of 3-(4,5-dimethylthiazol-2-yl)-2,5-diphenyltetrazolium bromide (MTT) to the insoluble formazan salt crystal that occurs in live cells. Briefly, HepG2 cells were seeded in 96-well plates at a density of 20,000 cells per well in EMEM+10% FBS (complete growth medium) and allowed to adhere overnight in a 37° C., 5% CO2 humidified incubator. The next day, test agents were prepared by performing 8 half-log10 serial dilutions in 100% DMSO at 200× the final desired concentration in the assay. Compounds were tested over a range of concentrations from 30 μM to 1.0 nM in the assay. HepG2 cells were incubated in the presence of various concentrations of CAMs for 7 days in a 37° C., 5% CO2 humidified incubator. At the completion of the 7-day incubation period, MTT reagent was added to each well and the mixture was incubated for an additional 3-4 hours. At the completion of the incubation period, all wells were aspirated to remove the culture medium. The formazan crystals were solubilized from the cell monolayers with 100% DMSO. Plates were briefly mixed on an orbital shaker and absorbance was measured at 492 nm using a Perkin-Elmer EnVision multi-label plate reader. All absorbance values were converted to a percentage of the signal obtained from the vehicle treated controls. Absorbance values at 492 nm are directly proportional to the number of viable cells present in the sample. A CC50 value (cytotoxic concentration that results in loss of 50% cell viability) was calculated from the dose-response curve by 4-parameter, non-linear regression analysis using the GraphPad Prism software. The positive control compound, staurosporine, reduced the viability of HepG2 cells in a dose-dependent manner (CC50=100 nM).
For orientation: Tetrazolium assays rely on reduction of a dye to a coloured formazan, in cell work by metabolically active cells.

Data set [2] deals with HBV replication in HepAD38 cells. Briefly: Anti-HBV activity in HepAD38 cells, extracellular HBV DNA by QPCR. In kind it is cell-based, HBV (genotype D, serotype ayw). The note with it: Hepatitis B virus, HePAD38, 168 h. How it is done: The anti-HBV activity of the Capsid Assembly Modulators (CAMs) was evaluated in a cell based assay utilizing the human hepatoma cell line HepAD38 (Ladner, S K., et al., 1998). HepAD38 cells were derived from the parental line, HepG2, that were stably transfected with a construct containing an HBV genome (genotype D, serotype ayw) under the control of a tetracycline repressible CMV promoter. Upon removal of tetracycline, viral pre-genomic RNA (pgRNA) and mRNAs are expressed and infectious viral particles are assembled and secreted into the culture medium providing a reliable, robust system to measure multiple steps of the HBV life cycle. Disruption of capsid formation results in reduced levels of DNA-containing virus particles that are released into the culture supernatant. To quantify the effect of CAMs on HBV replication, we developed a sensitive QPCR-based assay that measures extracellular HBV DNA levels upon treatment of HepAD38 cells with various concentrations of test compounds.
HepAD38 cells were maintained in DMEM/F12 medium containing 10% FBS, 400 μg/mL G418 and 0.3 μg/mL tetracycline (tet+medium) to maintain repression of HBV replication. To evaluate each compound, HepAD38 cells were seeded into 24-well collagen coated culture plates (Corning BioCoat) at a density of 200,000 cells per well in 1 mL of tet+medium and allowed to adhere overnight at 37° C., 5% CO2 in a humidified incubator. The following day, test articles were subjected to half-logo serial dilutions, ranging from 30 μM to 10 nM, in 100% DMSO at 200× the desired final assay concentration. Tetracycline was removed from the cells by aspirating the tet+medium and washing the cells once with growth medium lacking tetracycline (tet-). Various concentrations of each compound were added to the appropriate wells (1:200 dilution) and the plates were returned to the incubator. Following 7 days of incubation, culture supernatants were harvested and HBV DNA levels were evaluated by QPCR and compared to the vehicle treated control wells (i.e. DMSO alone).
To quantify HBV DNA levels, cell culture supernatants were diluted 1:10 in sterile, nuclease-free water (Gibco). The diluted supernatants were subsequently added to a PCR master mix containing 1× Roche Light Cycler Master Mix, 0.5 μM forward primer, 0.5 μM reverse primer (Fwd:
0.2 μM Roche Universal Probe Library Probe 25. The volume was brought to 20 μL with nuclease-free water and amplification of the HBV target sequence was performed using a Roche LightCycler 480 QPCR instrument. PCR extended out to 45 cycles with each cycle consisting of a denaturation step at 95° C. for 10 sec., followed by an annealing step at 60° C. for 10 sec. and a brief extension step at 72° C. for 1 sec.
Extracellular HBV DNA levels, expressed in copies/mL, were determined by comparison to a standard curve (10^2-10^9 copies/mL) using the Roche LightCycler analysis software. These values were subsequently converted to percent inhibition of HBV replication by dividing the HBV DNA levels in the experimental samples with those obtained from the vehicle control (˜1-2×10^5 copies/mL). Potency, expressed as an EC50 (the effective concentration required to inhibit […] of HBV replication), was calculated from the dose-response curve using a 4-parameter non-linear regression analysis (GraphPad Prism). The nucleoside analog inhibitor entecavir was used as a positive control to validate each assay run. The EC50 value of entecavir in the HepAD38 assay was 0.5 nM, as previously reported in the literature.

Setting [3] is: read-out: Anti-HBV EC50, HepAD38 cells, extracellular HBV DNA by QPCR, 7 days of incubation.

Where two headings read alike, the source gives them in different places.

As for `CC(=O)N[C@@H]1CC2CC[C@H](C1)N2C(=O)C(F)(F)c1cc(C(=O)Nc2ccc(F)c(C)c2)ccc1F` [Example 263, 3-(2-((1R,3r,5S)-3-acetamido-8-azabicyclo[3.2.1]octan-8-yl)-1,1-difluoro-2-oxoethyl)-4-fluoro-N-(4-fluoro-3-methylphenyl)benzamide], in data set [1] (Cytotoxicity CC50), the 50% cytotoxic concentration (CC50) – broadly, the concentration giving 50% cytotoxicity – at 7 days fell in the range of 5 to 30 µM. Also, in data set [2] (setting [3]), the EC50 (usually the concentration that produces a half-maximal response) is less than 5 µM.

The compound `COc1ccccc1NC(=O)C(F)(F)c1cc(C(=O)Nc2ccc(F)c(F)c2)ccc1F` [Example 21, 3-(1,1-difluoro-2-((2-methoxyphenyl)amino)-2-oxoethyl)-N-(3,4-difluorophenyl)-4-fluorobenzamide] had a CC50 at 7 days in data set [1] (Cytotoxicity CC50) of 5 to 30 µM. In data set [2] (setting [3]), the concentration giving a half-maximal response (EC50) lay within 5 to 30 µM.

`Cc1cc(NC(=O)c2ccnc(C(F)(F)C(=O)N3[C@@H]4CC[C@H]3C[C@H](C(=O)O)C4)c2)ccc1F` [Example 282, (1R,3s,5S)-8-(2,2-difluoro-2-(4-((4-fluoro-3-methylphenyl)carbamoyl)pyridin-2-yl)acetyl)-8-azabicyclo[3.2.1]octane-3-carboxylic acid]: the 50% cytotoxic concentration (CC50) at 7 days in data set [1] (Cytotoxicity CC50) is more than 30 µM. In data set [2] (setting [3]), the EC50 fell in the range of 5 to 30 µM.

Compound `O=C(Nc1ccc(F)cc1Cl)c1ccc(Cl)c(C(F)(F)C(=O)N2CCC(O)CC2)c1` [Example 41, 4-chloro-N-(2-chloro-4-fluorophenyl)-3-(1,1-difluoro-2-(4-hydroxypiperidin-1-yl)-2-oxoethyl)benzamide] had a CC50 at 7 days in data set [1] (Cytotoxicity CC50) of more than 30 µM. The EC50 in data set [2] (setting [3]) was in the range of 5 to 30 µM.

Compound `O=C(Nc1ccc(F)c(F)c1)c1ccc(F)c(C(O)C(=O)N2CCC(O)CC2)c1` (stereo not shown) [Example 120, N-(3,4-difluorophenyl)-4-fluoro-3-(1-hydroxy-2-(4-hydroxypiperidin-1-yl)-2-oxoethyl)benzamide] displayed a half-maximal cytotoxic concentration (CC50) at 7 days in data set [1] (Cytotoxicity CC50) of more than 30 µM. For the same compound, the EC50 in data set [2] (setting [3]) was more than 30 µM.

On to `CN(C(=O)c1ccc(Cl)c(C(F)(F)C(=O)N2CCC(O)CC2)c1)c1ccc(Cl)cc1` [Example 40, 4-chloro-N-(4-chlorophenyl)-3-(1,1-difluoro-2-(4-hydroxypiperidin-1-yl)-2-oxoethyl)-N-methylbenzamide], for which the CC50 at 7 days in data set [1] (Cytotoxicity CC50) was more than 30 µM. The EC50 in data set [2] (setting [3]) is more than 30 µM.

Compound `Cc1cc(NC(=O)c2cccc(C(F)(F)C(=O)N3C4CC[C@@H]3C[C@@H](O)C4)c2F)ccc1F` [Example 256, 3-(1,1-difluoro-2-((1R,3s,5S)-3-hydroxy-8-azabicyclo[3.2.1]octan-8-yl)-2-oxoethyl)-2-fluoro-N-(4-fluoro-3-methylphenyl)benzamide] came in with a CC50 at 7 days in data set [1] (Cytotoxicity CC50) of 5 to 30 µM. Moreover, the EC50 in data set [2] (setting [3]) was less than 5 µM.

`Cc1cc(NC(=O)c2ccc(F)c(C(F)(F)C(=O)N3[C@@H]4CC[C@H]3C[C@H](O)C4)c2)ccc1F` [Example 163, 3-(1,1-difluoro-2-((1R,3s,5S)-3-hydroxy-8-azabicyclo[3.2.1]octan-8-yl)-2-oxoethyl)-4-fluoro-N-(4-fluoro-3-methylphenyl)benzamide] had a cytotoxic concentration (CC50) at 7 days in data set [1] (Cytotoxicity CC50) of 5 to 30 µM. In addition, the EC50 in data set [2] (setting [3]) is less than 5 µM.

Regarding `Cc1cc(NC(=O)c2ccc(F)c(C(F)(F)C(=O)N3CCC(N4CCOCC4)CC3)c2)ccc1F` [Example 267, 3-(1,1-difluoro-2-(4-morpholinopiperidin-1-yl)-2-oxoethyl)-4-fluoro-N-(4-fluoro-3-methylphenyl)benzamide], the CC50 at 7 days in data set [1] (Cytotoxicity CC50) fell in the range of 5 to 30 µM. For the same compound, the concentration for a half-maximal effect (EC50) in data set [2] (setting [3]) lay within 5 to 30 µM.

Regarding `Cc1cc(NC(=O)c2ccc(F)c(C(F)(F)C(=O)N[C@H]3CC[C@H](O)CC3)c2)ccc1F` [Example 79, 3-(1,1-difluoro-2-(((1r,4r)-4-hydroxycyclohexyl)amino)-2-oxoethyl)-4-fluoro-N-(4-fluoro-3-methylphenyl)benzamide], the 50% cytotoxic concentration (CC50) at 7 days in data set [1] (Cytotoxicity CC50) is more than 30 µM. In addition, the EC50 in data set [2] (setting [3]) fell in the range of 5 to 30 µM.

In data set [1] (Cytotoxicity CC50), `Cc1cc(NC(=O)c2ccc(F)c(C(F)(F)C(=O)N3[C@@H]4CCC[C@H]3C[C@@H](NS(C)(=O)=O)C4)c2)ccc1F` [Example 336, 3-(1,1-difluoro-2-((1R,3r,5S)-3-(methylsulfonamido)-9-azabicyclo[3.3.1]nonan-9-yl)-2-oxoethyl)-4-fluoro-N-(4-fluoro-3-methylphenyl)benzamide] registered a CC50 at 7 days of more than 30 µM. Also, the concentration for a half-maximal effect (EC50) in data set [2] (setting [3]) is less than 5 µM.

`Cc1cc(NC(=O)c2ccc(F)c(C(F)(F)C(=O)N3CCC(NS(C)(=O)=O)C(F)(F)C3)c2)ccc1F` (stereo not shown) [Example 335, 3-(2-(3,3-difluoro-4-(methylsulfonamido)piperidin-1-yl)-1,1-difluoro-2-oxoethyl)-4-fluoro-N-(4-fluoro-3-methylphenyl)benzamide] came in with a cytotoxic concentration (CC50) at 7 days in data set [1] (Cytotoxicity CC50) of more than 30 µM. Also, in data set [2] (setting [3]), the EC50 is less than 5 µM.

`Cc1cc(NC(=O)c2ccc(F)c(C(F)(F)C(=O)N3CCC(N)C(C)(C)C3)c2)ccc1F` (stereo not shown) [Example 285, 3-(2-(4-amino-3,3-dimethylpiperidin-1-yl)-1,1-difluoro-2-oxoethyl)-4-fluoro-N-(4-fluoro-3-methylphenyl)benzamide] came in with a 50% cytotoxic concentration (CC50) at 7 days in data set [1] (Cytotoxicity CC50) of 5 to 30 µM. In addition, the concentration giving a half-maximal response (EC50) in data set [2] (setting [3]) is less than 5 µM.

For `Cc1cc(NC(=O)c2ccc(F)c(C(F)(F)C(=O)N3[C@@H]4CC[C@H]3c3sc(N)nc3C4)c2)ccc1F` [Example 313, 3-(2-((5R,8S)-2-amino-5,6,7,8-tetrahydro-4H-5,8-epiminocyclohepta[d]thiazol-9-yl)-1,1-difluoro-2-oxoethyl)-4-fluoro-N-(4-fluoro-3-methylphenyl)benzamide], the EC50 in data set [2] (setting [3]) was less than 5 µM.

`CN[C@@H]1C[C@H]2O[C@@](C)([C@@H]1OC)n1c3ccccc3c3c4c(c5c6ccccc6n2c5c31)C(=O)NC4` [staurosporine, reference compound]: the CC50 at 7 days in data set [1] (positive control, HepG2 cells, 7 days incubation, MTT, read-out: CC50, viability of HepG2 cells) was determined as 0.1 µM.

Consider `Cc1cc(NC(=O)c2ccc(F)c(C(F)(F)C(=O)N3CCn4c(cnc4C(F)(F)F)C3)c2)ccc1F` [Example 312, 3-(1,1-difluoro-2-oxo-2-(3-(trifluoromethyl)-5,6-dihydroimidazo[1,5-a]pyrazin-7(8H)-yl)ethyl)-4-fluoro-N-(4-fluoro-3-methylphenyl)benzamide], for which the concentration giving a half-maximal response (EC50) in data set [2] (setting [3]) is less than 5 µM.

With `C=C1[C@H](CO)[C@@H](O)C[C@@H]1n1cnc2c(=O)[nH]c(N)nc21` [entecavir, reference compound], the EC50 in data set [2] (positive control, HepAD38 cells, 7 days incubation, extracellular HBV DNA, read-out: EC50 in the HepAD38 assay) came to 0.0005 µM.

For `Cn1cc(C(=O)Nc2ccc(F)c(Cl)c2)cc1C(F)(F)C(=O)NC(C)(C)C` [Example 139, 5-(2-(tert-butylamino)-1,1-difluoro-2-oxoethyl)-N-(3-chloro-4-fluorophenyl)-1-methyl-1H-pyrrole-3-carboxamide], the EC50 in data set [2] (setting [3]) was less than 5 µM.
